Source: patent US20110201562A1, “FORMULATIONS AND METHOD FOR TREATING BALDNESS” (SEDERMA, priority 2005, published 2011)

What was measured:
[1] = system: blood vessels in the dermis; assay: Vasodilation on the scalp (statement, no method)
hair follicles = assay: Cultured hair follicles: growth monitored over 14 days; type: cell-based; details: 2 ppm in medium
Description: Excess hair follicles prepared in the context of a micrograft transplantation session were collected for culturing in a medium similar to that reported in, and herein encorporated by reference, Philpott et al., Whole Hair Follicule Culture, Dermatologic Clinics 595 (Oct. 14, 1996). Said hair follicles were then individually incubated at 37° C. under an air plus CO2 (at 5%) atmosphere for 14 days. The explants were then divided into four groups: 1) a control group for the culture medium alone, 2) a positive control group which was exposed to a medium of 2 ppm Minoxidil®, 3) a test group exposed to the peptide biotinyl-GHK in a medium of 2 ppm biotinyl-GHK, and 4) a test group exposed to the peptide biotinyl-GHK in a medium of 5 ppm biotinyl-GHK. The culture medium was changed every 2 days. General morphology was observed on Day 1 and Day 14. Concomitantly, a fraction of the follicles were frozen for the purposes of conducting more advanced immunohistochemical studies. Growth in the follicles was monitored using a digital camera with images being taken on Day 0, Day 3, Day 5, Day 7, Day 11, and Day 14.

5α-reductase = assay: Inhibition of 5α-reductase (statement, no method); type: biochemical

O=c1cc(-c2ccc(O)cc2)oc2cc(O)cc(O)c12 [Apigenin]
effect of use on the scalp on blood vessels [1]: dilates the blood vessels in the dermis

Nc1cc(N2CCCCC2)nc(N)[n+]1[O-] [Minoxidil®, Minoxidil, reference compound]
more growth than observed from the control group (hair follicles): 58%

CC1(C)CC[C@]2(C(=O)O)CC[C@]3(C)C(=CC[C@@H]4[C@@]5(C)CC[C@H](O)C(C)(C)[C@@H]5CC[C@]43C)[C@@H]2C1 [oleanolic acid]
inhibitory action on the enzyme 5α-reductase (5α-reductase): strong inhibitory action
